This is an account of results in US9346794B1, “Substituted 4-pyridones and their use as inhibitors of neutrophil elastase activity” (Boehringer Ingelheim International GmbH, priority 2012, dated 2016).

The assay deals with Human neutrophil elastase (Homo sapiens (Human), UniProt P08246). The experiment in a line: Human Neutrophil Elastase Assay. The assay is classed as biochemical. The settings on record: substrate MeOSuc-Ala-Ala-Pro-Val-AMC 250 μM, fluorescence, pH 7.5. On the procedure:
Human Neutrophil Elastase Assay
All other materials were of the highest grade commercially available.
The following buffers were used: Compound buffer: 100 mM Tris, 500 mM NaCl, adjusted to pH 7.5; Assay buffer: 100 mM Tris, 500 mM NaCl, adjusted to pH 7.5, containing 0.01% BSA.
Assay conditions: Test compounds were prediluted in DMSO and subsequently in compound buffer (5% DMSO final). […] After inactivation of the enzyme, fluorescence intensities were measured at 380 nm excitation and 460 nm emission wavelengths.
Each plate contains wells with a high value control (DMSO+enzyme+substrate) and wells with a low value control (DMSO+inactivated enzyme+substrate). IC50 values were estimated using a sigmoidal concentration response curve with variable slope. Means of low values were taken as 0%, means of high values as 100%. IC50 values of selected compound in the Neutrophil Elastase assay: […]

Each structure is given as a SMILES string.

Sequence of Human neutrophil elastase (P08246 30-247): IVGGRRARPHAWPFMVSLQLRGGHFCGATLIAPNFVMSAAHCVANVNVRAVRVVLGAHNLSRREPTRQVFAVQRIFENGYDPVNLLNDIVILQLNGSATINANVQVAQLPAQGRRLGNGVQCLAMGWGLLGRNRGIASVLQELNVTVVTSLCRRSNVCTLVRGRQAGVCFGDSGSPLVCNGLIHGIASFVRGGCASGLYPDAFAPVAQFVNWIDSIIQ

Compound `Cc1c(-c2ccnc(C(F)(F)F)c2)c(=O)c(C(=O)NCc2ccc(S(C)(=O)=NC#N)cc2)cn1C(C)C` (racemic) [Example 3, 1-Isopropyl-2-methyl-4-oxo-2′-trifluoromethyl-1,4-dihydro-[3,4′]-bipyridinyl-5-carboxylic acid 4-(N-cyano-S-methylsulfonimidoyl)-benzylamide] showed an IC50 of 4.7 nM.

Take `CCn1cc(C(=O)NCc2ccc(S(C)(=O)=NC#N)cc2)c(=O)c(-c2cccc(C(F)(F)F)c2)c1C` (racemic) [Example 4, 1-Ethyl-6-methyl-4-oxo-5-(3-trifluoromethyl-phenyl)-1,4-dihydro-pyridine-3-carboxylic acid 4-(N-cyano-S-methylsulfonimidoyl)-benzylamide]: half-maximal inhibition (IC50) was put at 3 nM.

Take `Cc1c(-c2cccc(C(F)F)c2)c(=O)c(C(=O)NCc2ccc(S(C)(=O)=NC#N)cc2)cn1C(C)C` (single isomer, unassigned) [Example 1A, 5-(3-Difluoromethyl-phenyl)-1-isopropyl-6-methyl-4-oxo-1,4-dihydro-pyridine-3-carboxylic acid 4-(N-cyano-S-methylsulfonimidoyl)-benzylamide]: inhibition was half-maximal at 3.1 nM (IC50).

`Cc1c(-c2ccnc(C(F)(F)F)c2)c(=O)c(C(=O)NCc2ccc(S(C)(=O)=NC#N)cc2)cn1C(C)C` (single isomer, unassigned) [Example 3A, 1-Isopropyl-2-methyl-4-oxo-2′-trifluoromethyl-1,4-dihydro-[3,4′]-bipyridinyl-5-carboxylic acid 4-(N-cyano-S-methylsulfonimidoyl)-benzylamide] gave an IC50 of 12 nM.

Compound `Cc1c(-c2ccnc(C(F)(F)F)c2)c(=O)c(C(=O)NCc2ccc(S(C)(=O)=NC#N)cc2)cn1C(C)C` (single isomer, unassigned) [Example 3B, 1-Isopropyl-2-methyl-4-oxo-2′-trifluoromethyl-1,4-dihydro-[3,4′]-bipyridinyl-5-carboxylic acid 4-(N-cyano-S-methylsulfonimidoyl)-benzylamide] came in with an IC50 of 5.1 nM.

Take `CCn1cc(C(=O)NCc2ccc(S(C)(=O)=NC#N)cc2)c(=O)c(-c2cccc(C(F)(F)F)c2)c1C` (single isomer, unassigned) [Example 4A, 1-Ethyl-6-methyl-4-oxo-5-(3-trifluoromethyl-phenyl)-1,4-dihydro-pyridine-3-carboxylic acid 4-(N-cyano-S-methylsulfonimidoyl)-benzylamide]: the IC50 came to 4.1 nM.

Regarding `CCn1cc(C(=O)NCc2ccc(S(C)(=O)=NC#N)cc2)c(=O)c(-c2cccc(C(F)(F)F)c2)c1C` (single isomer, unassigned) [Example 4B, 1-Ethyl-6-methyl-4-oxo-5-(3-trifluoromethyl-phenyl)-1,4-dihydro-pyridine-3-carboxylic acid 4-(N-cyano-S-methylsulfonimidoyl)-benzylamide], the IC50 was 1.6 nM.

With `CCn1cc(C(=O)NCc2ccc(S(=O)(CC)=NC#N)cc2)c(=O)c(-c2cccc(C(F)(F)F)c2)c1C` (single isomer, unassigned) [Example 10A], inhibition was half-maximal at 2.7 nM (IC50).

In the case of `CCn1cc(C(=O)NCc2ccc(S(=O)(CC)=NC#N)cc2)c(=O)c(-c2cccc(C(F)(F)F)c2)c1C` (single isomer, unassigned) [Example 10B], the IC50 amounted to 1.2 nM.

The compound `Cc1c(-c2cccc(C(F)(F)F)c2)c(=O)c(C(=O)NCc2ccc(S(C)(=O)=NC#N)cc2)cn1C1CC1` (single isomer, unassigned) [Example 20] showed an IC50 of 5.6 nM.

The compound `CCS(=O)(=NC#N)c1ccc(CNC(=O)c2cn(C3CC3)c(C)c(-c3cccc(C(F)(F)F)c3)c2=O)cc1` (single isomer, unassigned) [Example 21A] came in with an IC50 of 5.2 nM.

The compound `CCS(=O)(=NC#N)c1ccc(CNC(=O)c2cn(C3CC3)c(C)c(-c3cccc(C(F)(F)F)c3)c2=O)cc1` (single isomer, unassigned) [Example 21B] showed a half-maximal inhibitory concentration (IC50) of 2.1 nM.

`Cc1c(-c2cccc(C(F)(F)F)c2)c(=O)c(C(=O)NCc2ccc(S(=O)(=NC#N)C(C)C)cc2)cn1C1CC1` (single isomer, unassigned) [Example 22A] yielded an IC50 of 4.5 nM.

As to `Cc1c(-c2cccc(C(F)(F)F)c2)c(=O)c(C(=O)NCc2ccc(S(=O)(=NC#N)C(C)C)cc2)cn1C1CC1` (single isomer, unassigned) [Example 22B], the IC50 was found to be 1.2 nM.

Regarding `Cc1c(-c2cccc(C(F)(F)F)c2)c(=O)c(C(=O)NCc2ccc(S(C)(=O)=NC#N)cc2)cn1-c1ccccc1` (single isomer, unassigned) [Example 24], 5.5 nM corresponded to half-maximal inhibition (IC50).

In turn, `Cc1c(-c2cccc(C(F)(F)F)c2)c(=O)c(C(=O)NCc2ccc(S(C)(=O)=NC#N)cc2)cn1-c1ccccn1` (single isomer, unassigned) [Example 25] displayed an IC50 of 4.3 nM.

On to `Cc1c(-c2cccc(C(F)(F)F)c2)c(=O)c(C(=O)NCc2ccc(S(C)(=O)=NC#N)cc2)cn1-c1cccnc1` (single isomer, unassigned) [Example 26], for which inhibition was half-maximal at 3.3 nM (IC50).

`Cc1c(-c2cccc(C(F)(F)F)c2)c(=O)c(C(=O)NCc2ccc(S(C)(=O)=NC#N)cc2)cn1-c1cncnc1` (single isomer, unassigned) [Example 28]: the IC50 worked out at 3.3 nM.

In the case of `CCn1cc(C(=O)NCc2ccc(S(=O)(CC)=NC#N)cc2)c(=O)c(-c2cccc(C(F)F)c2)c1C` (single isomer, unassigned) [Example 29A], the 50% inhibitory concentration (IC50) is 2.2 nM.

Take `CCn1cc(C(=O)NCc2ccc(S(=O)(CC)=NC#N)cc2)c(=O)c(-c2cccc(C(F)F)c2)c1C` (single isomer, unassigned) [Example 29B]: the IC50 is under 1 nM.

`CCn1cc(C(=O)NCc2ccc(S(=O)(=NC#N)C(C)C)cc2)c(=O)c(-c2cccc(C(F)F)c2)c1C` (single isomer, unassigned) [Example 30A] displayed an IC50 of 1.8 nM.

The compound `CCn1cc(C(=O)NCc2ccc(S(=O)(=NC#N)C(C)C)cc2)c(=O)c(-c2cccc(C(F)F)c2)c1C` (single isomer, unassigned) [Example 30B] gave an IC50 of under 1 nM.

The compound `Cc1c(-c2cccc(C(F)F)c2)c(=O)c(C(=O)NCc2ccc(S(C)(=O)=NC#N)cc2)cn1-c1ccccc1` (single isomer, unassigned) [Example 38] gave an IC50 of 3.7 nM.

For `Cc1c(-c2cccc(C(F)F)c2)c(=O)c(C(=O)NCc2ccc(S(C)(=O)=NC#N)cc2)cn1-c1cccnc1` (single isomer, unassigned) [Example 39], the IC50 came out at 3.7 nM.

`Cc1c(-c2cccc(C(F)F)c2)c(=O)c(C(=O)NCc2ccc(S(C)(=O)=NC#N)cc2)cn1-c1ccncc1` (single isomer, unassigned) [Example 40] showed a half-maximal inhibitory concentration (IC50) of 4 nM.

`Cc1c(-c2ccc(F)c(C(F)(F)F)c2)c(=O)c(C(=O)NCc2ccc(S(C)(=O)=NC#N)cc2)cn1C(C)C` (single isomer, unassigned) [Example 41] registered an IC50 of 1.8 nM.

As to `Cc1c(-c2ccc(F)c(C(F)F)c2)c(=O)c(C(=O)NCc2ccc(S(C)(=O)=NC#N)cc2)cn1C(C)C` (single isomer, unassigned) [Example 42], 4.7 nM corresponded to half-maximal inhibition (IC50).

On to `Cc1c(-c2ccnc(C(F)(F)F)c2)c(=O)c(C(=O)NCc2ccc(S(C)(=O)=NC#N)cc2)cn1-c1ccccc1` (single isomer, unassigned) [Example 43], for which 13.4 nM corresponded to half-maximal inhibition (IC50).

`Cc1c(-c2ccnc(C(F)(F)F)c2)c(=O)c(C(=O)NCc2ccc(S(C)(=O)=NC#N)cc2)cn1-c1ccccn1` (single isomer, unassigned) [Example 44]: it took 14.9 nM to reach half-maximal inhibition (IC50).

The compound `Cc1c(-c2ccnc(C(F)(F)F)c2)c(=O)c(C(=O)NCc2ccc(S(C)(=O)=NC#N)cc2)cn1-c1cccnc1` (single isomer, unassigned) [Example 45] returned an IC50 of 14.4 nM.

Take `Cc1c(-c2ccnc(C(F)(F)F)c2)c(=O)c(C(=O)NCc2ccc(S(C)(=O)=NC#N)cc2)cn1-c1ccncc1` (single isomer, unassigned) [Example 46]: the IC50 was 11.7 nM.

With `Cc1c(-c2cccc(C(F)(F)F)c2)c(=O)c(C(=O)NCc2ccc(S(C)(=O)=NC#N)cc2)cn1-c1ccnn1C` (single isomer, unassigned) [Example 47], inhibition was half-maximal at 1.2 nM (IC50).

Compound `Cc1c(-c2cccc(C(F)F)c2)c(=O)c(C(=O)NCc2ccc(S(C)(=O)=NC#N)cc2)cn1C(C)C` (stereo not drawn) [Example 1, 5-(3-Difluoromethyl-phenyl)-1-isopropyl-6-methyl-4-oxo-1,4-dihydro-pyridine-3-carboxylic acid 4-(N-cyano-S-methylsulfonimidoyl)-benzylamide] came in with an IC50 of 1.3 nM.

In turn, `Cc1c(-c2cccc(C(F)F)c2)c(=O)c(C(=O)NCc2ccc(S(C)(=O)=NC#N)cc2)cn1C(C)C` (stereo not drawn) [Example 1B, 5-(3-Difluoromethyl-phenyl)-1-isopropyl-6-methyl-4-oxo-1,4-dihydro-pyridine-3-carboxylic acid 4-(N-cyano-S-methylsulfonimidoyl)-benzylamide] came in with an IC50 of 1.3 nM.

With `CCn1cc(C(=O)NCc2ccc(S(C)(=O)=NC#N)cc2)c(=O)c(-c2cccc(C(F)F)c2)c1C` (stereo not drawn) [Example 5, 5-(3-Difluoromethyl-phenyl)-1-ethyl-6-methyl-4-oxo-1,4-dihydro-pyridine-3-carboxylic acid 4-(N-cyano-S-methylsulfonimidoyl)-benzylamide], 2.5 nM corresponded to half-maximal inhibition (IC50).

Compound `Cc1c(-c2cccc(C(F)F)c2)c(=O)c(C(=O)NCc2ccc(S(C)(=O)=NC#N)cc2)cn1C1CCC1` (stereo not drawn) [Example 6, 5-(3-Difluoromethyl-phenyl)-1-cyclobutyl-6-methyl-4-oxo-1,4-dihydro-pyridine-3-carboxylic acid 4-(N-cyano-S-methylsulfonimidoyl)-benzylamide] showed an IC50 of 2.4 nM.

In general, IC50 refers to the concentration that inhibits the measured activity by half.
